{"source": "patent US5681826A", "about": "“Saccharide composition with reduced reducibility, and preparation and uses thereof” (Kabushiki Kaisha Hayashibara Seibutsu Kagaku Kenkyujo, priority 1994, dated 1997)", "key": {"[1]": {"test": "Maillard reaction with glycine, absorbance at 480 nm", "assay_type": "physicochemical", "procedure": "A solution, containing one % glycine and 10% of a saccharide preparation PI, P II, P III, P IV or P V in Experiment 4 and 50 mM phosphate buffer (pH 7.0), was kept at 100° C. for 90 min, followed by cooling the resultant solution, and determining for absorbance at a wave length of 480 nm in a 1-cm cell. As a control, maltotriose, maltotetraose, maltopentaose, maltohexaose and maltoheptaose, as a material for the saccharide preparations, were similarly treated as above, and measured for absorbance at a wave length of 480 nm.\nA solution, containing one % of glycine, 10% of a high-purity trehalose preparation with a purity of 99.5%, d.s.b., obtained by the method in Experiment 17, and 50 mM phosphate buffer (pH 7.0), was kept at 100° C. for 90 min, followed by cooling the resultant solution and determining the absorbance at a wave length of 480 nm in a 1-cm cell. As a control, glucose and maltose were similarly treated as above, and the resultants were determined for absorbance at a wave length of 480 nm."}, "[2]": {"test": "Utilization test in vivo, oral administration to healthy male volunteers", "design": "species or system human", "settings": "30 g oral", "procedure": "In accordance with the method as reported by H. Atsuji et al. in \"Rinsho-Eiyo\", Vol.41, No.2, pp.200-208 (1972), 30 g of a high-purity trehalose preparation with a purity of 99.5%, d.s.b., obtained by the method in Experiment 17 was dissolved in water into a 20 w/v % aqueous solution which was then orally administered to 6 healthy male volunteers. The volunteers were collected their blood at a prescribed time interval, and each collected blood was assayed for blood sugar- and insulin-levels. As a control Glucose was used."}, "[3]": {"test_system": "trehalose derived from pig kidney", "test": "Hydrolysis of trehalose by enzyme derived from pig kidney", "assay_type": "biochemical", "settings": "pH 5.7, 37°C., 18 hours (Experiment 7)", "procedure": "To purify trehalose in each reaction mixture, it was subjected to column chromatography using a column packed with \"XT-1016\", a strong-acid cation exchange resin in Na^+ -form commercialized by Tokyo Organic Chemical Industries, Ltd., Tokyo, Japan, followed by recovering fractions containing 97% or more of trehalose. The fractions were pooled and concentrated into an about 65% solution which was then allowed to stand at 25° C. for 2 days to crystallize trehalose into hydrous crystalline trehalose, followed by separating and drying it in vacuo to obtain a high-purity trehalose preparation with a purity of 99% or more, d.s.b. The yields of trehalose from glucosyltrehalose, maltosyltrehalose, maltotriosyltrehalose, maltotetraosyltrehalose and maltopentaosyltrehalose used as a substrate were respectively 9.5%, 14.9%, 16.0%, 18.5% and 17.7%, d.s.b. The high-purity trehalose preparations and a commercially available trehalose specimen as a standard were studied for melting point, heat of fusion, specific rotation, infrared absorption spectrum, powdery X-ray diffraction pattern, and readiness of hydrolysis by a […] derived from pig kidney, commercialized by Sigma Chemical Co., St. Louise, USA."}}, "note": "“Also recorded” adds a separate entry of the source.", "data": [{"smiles": "OC[C@H]1O[C@H](O[C@H]2O[C@H](CO)[C@@H](O)[C@H](O)[C@H]2O)[C@H](O)[C@@H](O)[C@@H]1O", "note": "[Trehalose, α,α-trehalose]", "values": [{"measurement": "Coloration degree relative to glucose or maltose", "setting": "[1]", "value": "0.4-0.6%"}, {"measurement": "Maillard reaction", "setting": "[1]", "value": "substantially free from the maillard reaction"}, {"measurement": "Coloration degree (480 nm)", "setting": "[1]; one % glycine, 10% saccharide, pH 7.0, 100°C., 90 min, 1-cm cell", "value": 0.006}, {"measurement": "Time of maximum blood sugar level", "setting": "[2]; 20 w/v % aqueous solution", "value": "0.5 to 1", "unit": "h"}, {"measurement": "Time of maximum insulin level", "setting": "[2]; 20 w/v % aqueous solution", "value": "0.5 to 1", "unit": "h"}, {"measurement": "Utilization by the body", "setting": "[2]; control glucose", "value": "readily assimilated, absorbed, metabolized and utilized by the body as an energy source"}, {"measurement": "Hydrolysis to glucose by pig kidney enzyme", "setting": "[3]", "value": "hydrolyzed by trehalose into glucose molecules; also recorded: decomposed into glucose molecules"}]}]}
